Test results as given in PubChem BioAssay (NCI).
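Five concentrations, 48 hours, 96-well plates. TGI: total growth inhibition.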

Assays:
Test in all cases: growth of human tumour cells (NCI), 48 h
[1] = tested on: HCT-15 colon
[2] = tested on: MDA-MB-231 breast
[3] = tested on: NCI-H460 lung
[4] = tested on: OVCAR-5 ovarian
[5] = tested on: SF-539 CNS
[6] = tested on: SK-OV-3 ovarian
[7] = tested on: T-47D breast
[8] = tested on: U251 CNS
[9] = tested on: UACC-257 melanoma
[10] = tested on: UACC-62 melanoma

| SMILES | TGI [1] [µM] | TGI [2] [µM] | TGI [3] [µM] | TGI [4] [µM] | TGI [5] [µM] | TGI [6] [µM] | TGI [7] [µM] | TGI [8] [µM] | TGI [9] [µM] | TGI [10] [µM] |
| --- | --- | --- | --- | --- | --- | --- | --- | --- | --- | --- |
| CC1CC(=O)Nc2nc3ccccc3n21 (stereo not given) | > 100 | > 100 | > 100 | > 100 | > 100 | > 100 | > 100 | > 100 | > 100 | > 100 |
| O=C1C=CC(=O)c2c(O)c(NCCc3ccc(O)cc3)c(Cl)c(O)c21 | > 10 | > 10 | > 10 | > 10 | > 10 | > 10 | > 10 | > 10 | > 10 | > 10 |
| O=c1c2ccccc2nc(Nc2cccc(Cl)c2)n1/N=C/C=C/c1ccccc1 | > 100 | > 100 | > 100 | > 100 | > 100 | > 100 | > 100 | > 100 | > 100 | > 100 |
| O=C1CSC(c2cccs2)N1c1nc2cc3sc(N4C(=O)CSC4c4cccs4)nc3cc2s1 (stereo not given) | > 50 | > 50 | > 50 | > 50 | 3.6 | > 50 | > 50 | > 50 | > 50 | > 50 |
| COc1cc(CN2CCCCC2)cc2cc(C(=O)O)c(=O)oc12 | > 100 | > 100 | > 100 | > 100 | > 100 | > 100 | > 100 | > 100 | > 100 | > 100 |
